Results reported in PubChem BioAssay AID179 (DTP/NCI, 2004).
The source made the active and inactive calls.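 The calls were made as follows: active = compounds giving half or more protection of infected cells from virus-caused growth loss, again on retest; inactive = the rest.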

System: CEM cells HIV-1 protection, formazan growth assay
Assay: NCI AIDS Antiviral Assay
Details: for IC50: measured here: growth of uninfected CEM cells
Method in brief: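 Human CEM cells, uninfected and HIV-1-infected, exposed to five drug concentrations; growth measured by soluble formazan assay and scored as percent protection from infection, with protecting compounds retested.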

Structure (SMILES)	EC50 [µM]	IC50 [µM]	outcome
C=C(CN(C)C)C(=O)c1ccc(OC2OC(COC(C)=O)C(OC(C)=O)C(OC(C)=O)C2OC(C)=O)cc1 (stereo unspecified)	> 200	3.24	–
CC(C)(C)OC(=O)N[C@H]1CC(O)c2ccccc2N(CC(=O)O)C1=O (stereo partly specified)	> 251	> 251	–
Cc1cc(S(=O)(=O)O)ccc1N=Nc1ccc(N=Nc2cc(S(=O)(=O)O)c3ccccc3c2O)c(C)c1	> 100	> 100	–
COc1ccc(NC(=O)CC/C(CC(=O)c2ccco2)=N/NC(N)=S)cc1	–	–	inactive
O=C(N/N=C\c1cccs1)c1ccncc1	> 200	> 200	–
CCOP(=O)(Nc1cccc(Cl)c1)OCC	> 955	–	–
CC(=O)OC(=C(C#N)C#N)c1nccnc1C(C)=O	> 200	11.2	–
CC12C(=O)N(C3CCC(=O)NC3=O)C(=O)C1C1CCC2C1 (stereo unspecified)	> 200	> 200	–
Cc1ccccc1C(C#N)/C(=N/NC(=O)C(=O)NN)C(=O)Nc1cccc(C(F)(F)F)c1 (stereo unspecified)	> 209	> 209	–
Cc1ccccc1NC(=O)/C(=N\NC(N)=S)C(C#N)c1ccccc1 (stereo unspecified)	> 186	> 186	–
C=C(c1ccccc1)N1N=NC2CCOC21 (stereo unspecified)	> 200	> 200	–
Cc1nnc2scnn12	–	–	inactive
CC(/C=N/N(C)C1=NCCCN1)=N/N(C)C1=NCCCN1	> 200	> 200	–
FC(F)(F)C1(C(F)(F)F)C2CCC3(CC(F)(F)C(F)(F)S3)C1C2 (stereo unspecified)	> 200	> 200	–
CC1=Nc2cc(C(=O)c3ccccc3)ccc2N=C(c2c(O)c3ccc4ccccc4c3oc2=O)C1	> 20	> 20	–
SC1N=C(c2ccccc2)N2C(S)N=C(c3ccccc3)N12 (stereo unspecified)	> 200	83.2	–
COC(=O)C(CC12CC3CC(CC(C3)C1)C2)NC(=O)C(N)CC(=O)O (stereo unspecified)	> 200	> 200	–
NC(=O)O/N=C/c1ccccn1	> 200	> 200	–
Clc1ccccc1C1=NN(c2ccccc2)C2c3ccccc3OCC12 (stereo unspecified)	> 72.4	> 72.4	–
COc1nn(Cc2ccccc2F)c2ccc([N+](=O)[O-])cc12	> 200	50.1	–
C[n+]1c(-c2ccc(/C=C/C=N\NC(=O)c3ccc(C(=O)N/N=C\C=C\c4ccc(-c5cn6ccccc6[n+]5C)cc4)cc3)cc2)cn2ccccc21	> 9.77	> 9.77	–
CC(=O)Oc1c(Cl)cc(C(=CCC[C@H]2CC[C@@]3(C)[C@@H](CC[C@@H]4[C@@H]3CC[C@]3(C)[C@@H](C(C)CCCC(C)C)CC[C@@H]43)C2)c2cc(Cl)c(OC(C)=O)c(C(=O)OCc3ccccc3)c2)cc1C(=O)OCc1ccccc1 (stereo partly specified)	> 200	> 200	–

Structure (SMILES)	EC50 [µM]	IC50 [µM]	outcome
CCN(CCCl)CCCCCNc1c2ccccc2nc2ccc(OC)cc12	–	–	inactive
O=[N+]([O-])c1ccc(CN(CCCl)OCCCl)cc1	> 200	37.2	–
COc1cccc(N2C(=O)c3c(c4[nH]c5ccccc5c4c4ccc(C(C)(C)C)cc34)C2=O)c1	> 11.5	> 11.5	–
CCOC(=O)c1ccc(N=C2Sc3nc4ccccc4n3C2=Nc2ccc(C(=O)OCC)cc2)cc1	> 50.1	> 50.1	–
COc1ccc(C)cc1NC(=O)C(Br)C(Br)C(=O)O (stereo unspecified)	> 200	13.5	–
COC(=O)C1=C(C(=O)OC)N2c3ccccc3-n3c(-c4ccccc4)cc(OC)c3C2(C)C(C(=O)OC)=C1C(=O)OC (stereo unspecified)	> 53.7	> 53.7	–
O=C(O)c1c[nH]n2c(=S)ncnc12	> 871	> 871	–
COC(=O)C(C)Oc1ccc(O)cc1 (stereo unspecified)	> 1260	> 1260	–
CC(C)(C)/C(CC(=O)CCC(=O)Nc1ccc(Cl)cc1)=N\NC(N)=S	–	–	inactive
c1ccc([B-]2([C+]3CCCCC3)N3CCCCC3C3CCCCN32)cc1 (stereo unspecified)	> 200	8.32	–
COC1(OC)c2no[n+]([O-])c2C(OC)(OC)c2c1no[n+]2[O-]	> 200	3.89	–
Cn1cnc2[nH]c(=O)n(O)c(=O)c21	> 200	35.5	–
N#C/C(=C\c1cccc(Cl)c1)C(=O)c1ccccc1	> 112	55	–
Cc1ccc(N=NC(=O)NNc2ccc(C)cc2Br)c(Br)c1	> 200	35.5	–
CC(=O)N1C(=O)C2(Nc3cccnc3N2)c2ccccc21 (stereo unspecified)	> 100	> 100	–
NC(=O)C(=O)C1C(=O)N(c2ccccc2)N=C1N (stereo unspecified)	–	–	inactive
CCC1=CC(OCc2ccccc2)C(CCN(Cc2ccccc2)C(=O)OCc2ccccc2)C1 (stereo unspecified)	> 200	9.55	–
CC1(C)C(=O)C(=Cc2ccco2)C1=O	> 100	> 100	–
O=C(NCP(=O)(c1ccccc1)c1ccccc1)OCc1ccccc1	> 200	> 200	–
Cc1ccccc1C1=C(C(=O)Nc2ccc(Cl)c(Cl)c2)NC(=S)NC1N (stereo unspecified)	> 617	> 617	–
CC(=O)Oc1cc2c(cc1OC(C)=O)C1(C)CCC2(C)c2cc(OC(C)=O)c(OC(C)=O)cc21	–	–	inactive
COC(=O)C1=C(C(=O)OC)C2C3CC4C(C13)C42	> 200	> 200	–
